Series [1] is described as follows: MTT cytotoxicity assay in BHK-21 cells. The settings on record: hamster, BHK-21 cells (baby hamster kidney), 24 h post-treatment. It counts as cell-based. On the procedure:
(§1) Cytotoxicity of each compound towards cells for four selected cell lines in the range of 1 to 500 µM was evaluated using the MTT (3-(4,5-dimethylthiazol-2-yl)-2,5-diphenyltetrazolium bromide) assay at 24 h post-treatment, in parallel with control and vehicle-treated cells (0.1% dimethyl sulfoxide (DMSO)). The 50% cytotoxic concentration (CC50) values calculated from the dose-response curve (Supplementary Figures S2–S5) are shown in Table 1. Overall, a range of cytotoxicities were seen from the four compounds across the […]. The most cytotoxic combination was ZAD-1 and BHK-21 cells, while the least cytotoxic combination was andrographolide and BHK-21 cells (Table 1).
(§2) A549 cells were cultured in ninety-six-well tissue culture plates under standard conditions until the cells reached 90% confluence. The cell culture medium was removed and then cells were incubated with various concentrations of andrographolide (1–100 μM) diluted in complete medium with FBS prior to being cultured for 24 h under standard conditions before analysis using either the Vybrant MTT Cell proliferation assay kit (V13154, Invitrogen) or the alamarBlue (Thermo Fischer Scientific, Waltham, MA, USA) assay kit according to the manufacturers recommendations. Values were determined from 8 (MTT assay) or 3 (alamarBlue) independent replicates. Negative controls (only media and media with 0.1% DMSO) and positive controls (5% DMSO) were included. To determine cell number, cell cultures were trypsinized by the addition of 0.25% Trypsin/0.1% ethylelediaminetetraacetic acid (EDTA) for 3 min and then cell suspensions were diluted with 0.4% trypan blue solution. Cells were counted using a hemocytometer. Cell morphology was additionally observed under an inverted microscope after 24 h treatment with various concentrations of each compound.
Figu re S2. Cytotoxicity of ZAD -1 (A), ZA D-2 (B), ZA D-3 (C), and andro grapholide (D) to BHK- 21 (baby hamster kidney) cells. BHK- 21 cells were incubated with various concentrations of each compound for 24 hrs followed by MTT cell viability assay. The experiment was undertaken independently in 4 replicates.
(§3) DMSO at the same concentrations was used as a control. 10% ethanol, PBS, and milli- Q water were used as a positive control of cell death. The bars show mean ± SD. […]
For orientation: Tetrazolium assays rely on reduction of a dye to a coloured formazan, in cell work by metabolically active cells.

A short description of series [2]: MTT cytotoxicity assay in Vero cells. It counts as cell-based. The settings on record: African green monkey, Vero cells (monkey kidney), 24 h post-treatment. As to the method:
as §1, §2
Figu re S3. Cytotoxicity of ZAD -1 (A), ZA D-2 (B), ZA D-3 (C), and andro grapholide (D) to Ve r o (monkey kidney) cells. Ve r o cells were incubated with various concentrations of each compound for 24 hrs followed by MTT cell viability assay. The experiment was undertaken independently in 4 replicates. DMSO at the same concentrations was used as a control. 10% ethanol, PBS, and milli- Q water were used as a positive control of cell death. The bars show mean ± SD. […]

The nature of series [3]: MTT cytotoxicity assay in A549 cells. It counts as cell-based. The note with it: human, A549 cells (human lung carcinoma), 24 h post-treatment. On the procedure: as §1, §2
Figu re S4. Cytotoxicity of ZAD -1 (A), ZA D-2 (B), ZA D-3 (C), and andro grapholide (D) to A549 (human lung carcinoma) cells. A549 cells were incubated with various concentrations of each compound for 24 hrs followed by MTT cell viability assay. The experiment was undertaken independently in 4 replicates.
as §3

Series [4] in a line: MTT cytotoxicity assay in HEK293T/17 cells. It counts as cell-based. The note with it: human, HEK293T/17 cells (human embryonic kidney), 24 h post-treatment. As to the method: as §1, §2
Figu re S5. Cytotoxicity of ZAD -1 (A), ZA D-2 (B), ZA D-3 (C), and andro grapholide (D) to HEK293T/17 (human embryonic kidney) cells.
HEK293T/17 cells were incubated with various concentrations of each compound for 24 hrs followed by MTT cell viability assay. The experiment was undertaken independently in 4 replicates. DMSO at the same concentrations was used as a control.
10% ethanol, PBS, and milli- Q water were used as a positive control of cell death. […]

Another series relates to ZIKV. The series can be described thus: Percentage of ZIKV infection of A549 cells by flow cytometry. It counts as cell-based, Zika virus. The settings on record: A549, MOI 5, 10 and 25 µM, 24 h, vs vehicle. On the procedure: To confirm the effects of andrographolide and the andrographolide analogues on ZIKV infection, A549 cells were infected with ZIKV at MOI of 5 for 2 h, and subsequently treated with the compounds at concentrations of 10 and 25 μM or with vehicle for 24 h. The cells were harvested for determination of the percentage of infection by flow cytometry, while the supernatants were collected for determination of viral titer by standard plaque assay.
HEK293T/17 or A549 cells were cultured in six-well plates under standard conditions until the cells reached 80% confluence. HEK293T/17 cells were infected with DENV 2, while A549 cells were infected with ZIKV Thai strain at MOI 5 for 2 h at 37 °C and 5% CO2 in culture medium without FBS. Mock infection was undertaken in parallel. After the infection period, the medium was removed and replaced with complete medium (including FBS) containing 0.1% DMSO (no treatment control) or the appropriate concentration of each compound and cells were again incubated under standard conditions. At 24 h post-treatment, cells were harvested for determination of effects of compounds on percentage of infection and supernatant was collected for determination of viral productivity. All experiments were undertaken independently in triplicate with duplicate plaque assay.
Mock- or viral-infected cells (with or without compound treatment) were harvested at an appropriate time point then incubated with 10% normal goat serum (NGS; Gibco Invitrogen) in PBS-immunofluorescence assay (IFA) buffer on ice for 30 min. The cells were washed with 800 µL of 1% BSA/PBS-IFA and fixed with 200 µL of 4% paraformaldehyde in PBS-IFA at room temperature in the dark for 20 min. After washing with 800 µL of 1% BSA/PBS-IFA, cells were permeabilized with 200 µL of 0.2% Triton X-100 in PBS-IFA for 10 min at room temperature in the dark. Subsequently, the cells were washed with 800 µL of 1% BSA/PBS-IFA followed by overnight incubation with 50 µL of primary antibody (1:150 dilution of pan-specific anti-dengue virus E protein antibody HB114 for DENV and 1:2 dilution of anti-flavivirus antibody HB112 for ZIKV). After washing twice with 800 µL of 1% BSA/PBS-IFA, the cells were incubated with 50 µL of a goat anti-mouse IgG conjugated with fluorescein isothiocyanate (FITC; KPL, Guilford, UK) diluted 1:40 with 1% BSA/PBS-IFA at room temperature in the dark for 1 h. The cells were washed twice with 800 µL of 1% BSA/PBS-IFA and resuspended in 100 µL of PBS-IFA. The fluorescence signal was analyzed by flow cytometry on a BD FACalibur cytometer (Becton Dickinson, BD Biosciences, San Jose, CA, USA) using CellQuest™ software (Version 6). All experiments were undertaken independently in triplicate. All raw flow cytometry data plots are provided in Supplementary Figures S13–S19.
On the technique in general: A flow cytometer gives signals particle by particle.

The test system of another series is DENV 2. The series can be described thus: Percentage of DENV 2 infection of HEK293T/17 cells by flow cytometry. It counts as cell-based, dengue virus. The note with it: HEK293T/17, MOI 5, 10 µM, 24 h; exception to the significant reduction. As to the method:
The effects of the compounds on DENV-2 infection were evaluated using HEK293T/17 as host cells at MOI of 5. The cells were infected with DENV 2 for 2 h and then the cells were incubated with the compounds at non-cytotoxic (or morphology altering) concentrations of 10 and 25 μM of ZAD-1 and ZAD-3, or 25 and 50 μM of ZAD-2, or 50 and 75 μM of andrographolide or 0.1% DMSO vehicle control. After 24 h of treatment, cells were harvested for determination of the percentage of infection by flow cytometry, while the culture supernatants were collected to determine the viral production.
HEK293T/17 or A549 cells were cultured in six-well plates under standard conditions until the cells reached 80% confluence. HEK293T/17 cells were infected with DENV 2, while A549 cells were infected with ZIKV Thai strain at MOI 5 for 2 h at 37 °C and 5% CO2 in culture medium without FBS. Mock infection was undertaken in parallel. […]
Mock- or viral-infected cells (with or without compound treatment) were harvested at an appropriate time point then incubated with 10% normal goat serum (NGS; Gibco Invitrogen) in PBS-immunofluorescence assay (IFA) buffer on ice for 30 min. […] The fluorescence signal was analyzed by flow cytometry on a BD FACalibur cytometer (Becton Dickinson, BD Biosciences, San Jose, CA, USA) using CellQuest™ software (Version 6). […]

Usually CC50 stands for the concentration that lowers cell viability or growth by half.

Regarding `C=C1CC[C@@H]2[C@](C)(COC(C)=O)[C@H](O)CC[C@@]2(C)[C@@H]1C/C=C1/C(=O)OC[C@H]1Oc1ccc([N+](=O)[O-])cc1OC` [ZAD-3], the CC50 at 24 h in series [1] worked out at 175 ± 7 µM; in series [2], 186 ± 25 µM; in series [3] it was 190 ± 22 µM; in series [4], 201 ± 25 µM. In the series with ZIKV, the “number of ZIKV-infected cells (percentage of infection)” value was “no significant effects”. The “percentage of DENV 2 infection” value in the series on DENV 2 was “exception”.

Consider `C=C1CC[C@@H]2[C@](C)(CO)[C@H](O)CC[C@@]2(C)[C@@H]1C/C=C1/C(=O)OC[C@@H]1Oc1ccc([N+](=O)[O-])cc1OC` [ZAD-2], for which the CC50 at 24 h was found to be 218 ± 16 µM in series [1], 179 ± 13 µM in series [2], 194 ± 17 µM in series [3] and 197 ± 7 µM in series [4]. Also, the “number of ZIKV-infected cells (percentage of infection)” value in the series on ZIKV is “no significant effects”.

For the origin of these results see article PMC7662321, “Andrographolide and Its 14-Aryloxy Analogues Inhibit Zika and Dengue Virus Infection” (Molecules, 2020).
